{"source": "patent US20230265479A1", "about": "(priority 2020, published 2023)", "key": {"[1]": {"tested_on": "Firefly Luciferase reporter gene driven by the C3P3-G2 system in HEK-293 cells", "type": "cell-based, human"}, "[2]": {"tested_on": "Firefly Luciferase reporter gene driven by the C3P3-G1 system in HEK-293 cells", "type": "cell-based, human"}, "[3]": {"target": "EIF2AK2 (Homo sapiens, UniProt P19525)", "sequence (P19525 whole entry)": "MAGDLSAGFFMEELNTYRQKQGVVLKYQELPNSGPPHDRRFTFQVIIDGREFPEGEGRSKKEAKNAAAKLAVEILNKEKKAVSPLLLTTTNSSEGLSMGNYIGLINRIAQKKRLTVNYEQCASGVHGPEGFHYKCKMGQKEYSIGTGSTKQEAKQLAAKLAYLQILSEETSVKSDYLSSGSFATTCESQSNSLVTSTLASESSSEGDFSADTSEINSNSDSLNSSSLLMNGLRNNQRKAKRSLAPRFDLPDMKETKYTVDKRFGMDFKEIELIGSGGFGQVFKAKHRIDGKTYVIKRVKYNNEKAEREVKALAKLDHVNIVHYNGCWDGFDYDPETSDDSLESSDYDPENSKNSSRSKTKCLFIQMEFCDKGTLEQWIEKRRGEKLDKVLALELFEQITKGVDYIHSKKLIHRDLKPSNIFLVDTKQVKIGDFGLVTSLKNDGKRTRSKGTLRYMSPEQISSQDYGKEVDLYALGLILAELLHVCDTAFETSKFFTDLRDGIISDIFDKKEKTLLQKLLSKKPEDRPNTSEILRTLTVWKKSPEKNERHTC", "conditions": "binds ATP-binding site; inhibits RNA-induced EIF2AK2 autophosphorylation (Jammi et al. 2003); cited from earlier work"}}, "data": [{"smiles": "O=C1Nc2ccc3ncsc3c2/C1=C/c1cnc[nH]1", "note": "[CAS 608512-97-6]", "values": [{"measurement": "Maximum efficacy, relative ratio vs. negative control cells", "setting": "[1]", "value": 1.67, "unit": "fold"}, {"measurement": "Maximum efficacy, relative ratio vs. negative control cells", "setting": "[2]", "value": 1.31, "unit": "fold"}, {"measurement": "IC50", "setting": "[3]", "value": 210, "unit": "nM"}]}]}
